Legend:
[1] = molecular target: ALK [WT] (Homo sapiens, UniProt Q9UM73); test: Kinase inhibition assay, ALK [WT]; format: biochemical
Experimental: (§1) Compound preparation: The test compounds were dissolved in DMSO to make 20 mM stock solutions. The compounds were diluted in DMSO to 0.1 mM (a dilution with 100 times the final concentration) before use, and a 3-fold series gradient dilution with 11 concentrations was made. Dilutions with 4 times of the final concentration were prepared by diluting with buffer when dosing.
(§2) Kinase assay: after preparing the buffer solution, the enzyme was mixed with pre-diluted compounds with different concentrations, and placed at room temperature for 30 minutes in duplicate. The corresponding substrate and ATP were added thereto and reacted at room temperature for 60 minutes (both a negative and a positive control were set). After the reaction, antibody was added for detection, and after incubation at room temperature for 60 minutes, Evnvision detection was carried out, and data was collected. Data was analyzed and fit according to XLfit5 software. IC50 was calculated by the following formula: (IC50=[(ABS test−ABS begin)/(ABS control−ABS begin)]×100).

[2] = molecular target: ALK [L1196M] (Homo sapiens, UniProt Q9UM73, L1196M); test: Kinase inhibition assay, ALK [L1196M]; format: biochemical
Chain of ALK [L1196M] (Q9UM73 19-1620 L1196M): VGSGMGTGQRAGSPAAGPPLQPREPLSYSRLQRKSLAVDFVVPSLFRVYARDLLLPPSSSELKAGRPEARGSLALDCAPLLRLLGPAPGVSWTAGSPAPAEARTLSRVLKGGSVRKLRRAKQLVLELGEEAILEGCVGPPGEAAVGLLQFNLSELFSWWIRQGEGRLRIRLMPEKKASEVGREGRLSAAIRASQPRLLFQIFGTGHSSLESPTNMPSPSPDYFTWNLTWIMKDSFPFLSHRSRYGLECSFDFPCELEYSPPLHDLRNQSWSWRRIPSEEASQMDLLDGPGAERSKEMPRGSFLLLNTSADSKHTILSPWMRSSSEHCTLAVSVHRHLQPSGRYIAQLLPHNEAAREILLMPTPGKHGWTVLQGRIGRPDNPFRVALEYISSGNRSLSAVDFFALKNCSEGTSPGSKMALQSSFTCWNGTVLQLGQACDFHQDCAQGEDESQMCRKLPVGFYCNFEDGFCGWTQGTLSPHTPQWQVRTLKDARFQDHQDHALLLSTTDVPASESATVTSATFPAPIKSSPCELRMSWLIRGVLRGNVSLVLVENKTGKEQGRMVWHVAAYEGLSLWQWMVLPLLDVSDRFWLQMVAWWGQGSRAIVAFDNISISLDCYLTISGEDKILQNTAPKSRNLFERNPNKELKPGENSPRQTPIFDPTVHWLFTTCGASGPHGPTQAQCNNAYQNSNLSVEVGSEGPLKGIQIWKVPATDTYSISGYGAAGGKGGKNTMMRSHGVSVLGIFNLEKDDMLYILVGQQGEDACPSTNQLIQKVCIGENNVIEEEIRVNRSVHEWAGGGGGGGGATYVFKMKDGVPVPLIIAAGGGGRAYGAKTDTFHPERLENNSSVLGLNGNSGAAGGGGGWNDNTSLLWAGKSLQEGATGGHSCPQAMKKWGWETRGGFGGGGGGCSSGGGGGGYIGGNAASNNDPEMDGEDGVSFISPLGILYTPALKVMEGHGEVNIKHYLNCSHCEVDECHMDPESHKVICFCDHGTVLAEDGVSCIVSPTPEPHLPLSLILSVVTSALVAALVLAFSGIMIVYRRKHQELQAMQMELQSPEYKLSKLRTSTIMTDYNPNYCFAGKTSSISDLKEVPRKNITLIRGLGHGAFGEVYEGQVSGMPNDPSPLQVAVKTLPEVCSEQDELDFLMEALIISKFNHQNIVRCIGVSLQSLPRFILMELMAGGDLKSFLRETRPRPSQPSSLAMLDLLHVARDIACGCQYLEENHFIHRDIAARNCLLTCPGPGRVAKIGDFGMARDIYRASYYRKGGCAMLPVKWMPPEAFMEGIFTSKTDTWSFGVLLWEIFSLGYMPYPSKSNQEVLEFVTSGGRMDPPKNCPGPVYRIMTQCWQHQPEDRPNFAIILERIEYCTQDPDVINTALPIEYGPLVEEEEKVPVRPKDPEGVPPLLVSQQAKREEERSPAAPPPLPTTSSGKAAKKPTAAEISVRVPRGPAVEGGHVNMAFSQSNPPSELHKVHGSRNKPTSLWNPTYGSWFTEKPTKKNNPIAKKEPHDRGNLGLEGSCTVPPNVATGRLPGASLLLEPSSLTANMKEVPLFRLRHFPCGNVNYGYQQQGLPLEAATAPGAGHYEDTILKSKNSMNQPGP
Experimental: as §1, §2

[3] = test system: BaF3 parental; test: Cytotoxicity test (CellTiter-Glo), BaF3 parental; format: cell-based; conditions: Mus musculus, 72 hours, read-out: IC50(nM) parental (Ba/F3)
Experimental: (§3) The in vitro anti-proliferative activity of the compounds of the present disclosure against three types of cells that are cultured in vitro was tested by CellTiter-Glo method.
(§4) Cell lines: BaF3 parental; BaF3 [EML4-ALK] (From WuXi PharmaTech) and BaF3 [EMF4-AFK F1196M] (From WuXi PharmaTech); wherein, BaF3 parental was cultured in RPMI1640 medium containing 10 ng/ml IL-3, 10% fetal bovine serum, 100 U/ml penicillin, and 100 μg/ml streptomycin, BaF3 [EMF4-AFK] and BaF3 [EMF4-AFK F1196M] were cultured in RPMI1640 medium containing 10% fetal bovine serum, 100 U/ml penicillin, and 100 μg/ml streptomycin.
(§5) Reagents and materials: RPMI-1640 (GIBCO, Cat. No. A10491-01); fetal bovine serum (GIBCO, Cat. No. 10099141); 0.25% trypsin-EDTA (GIBCO, Cat. No. 25200); penicillin-streptomycin, liquid (GIBCO, Cat. No. 15140-122); DMSO (Sigma, Cat. No. D2650); CellTiter-Glo Test Kit (Promega, Cat. No. G7572), and 96-well plate (Corning, Cat. No. 3365).
(§6) 1. The test compounds were dissolved in DMSO to make stock solutions and subjected to a series gradient dilution to give solutions with 10-fold working concentration.
(§7) 2. The cells in the logarithmic growth phase were diluted with the culture solution to adjust to the specific cell concentration, 90 μi of cell suspension was added to the 96-well plate to make the cell density reach the specified concentration. The plate was incubated in a incubator at 37° C., containing 5% carbon dioxide gas overnight.
(§8) 3. 10 μl drug solutions were added to each well of the 96-well plate inoculated with cells. 10 concentrations of the compounds were tested starting from the highest concentration of 20 μM with a 3-fold series gradient dilution in duplicate.
(§9) 4. After continuously cultured for 72 hours, the cells were detected by CellTiter-Glo for the cell viability. The dose-effect curve was made using GraphPad Prism software and IC50 was calculated.

[4] = molecular target: T1, BaF3 [EML4-ALK] (Homo sapiens, UniProt Q9UM73); test: Cytotoxicity test (CellTiter-Glo), BaF3 [EML4-ALK]; format: cell-based; conditions: 72 hours, CellTiter-Glo; read-out: IC50(nM) ALK (Ba/F3)
T1 construct: IC50(nM) ALK (Ba/F3); other: 72 hours, CellTiter-Glo; BaF3 [EML4-ALK]; fused on or other part: Q9HC35 (Echinoderm microtubule-associated protein-like 4)
T1 sequence (Q9UM73 whole entry, change not shown, the tested form may be a part): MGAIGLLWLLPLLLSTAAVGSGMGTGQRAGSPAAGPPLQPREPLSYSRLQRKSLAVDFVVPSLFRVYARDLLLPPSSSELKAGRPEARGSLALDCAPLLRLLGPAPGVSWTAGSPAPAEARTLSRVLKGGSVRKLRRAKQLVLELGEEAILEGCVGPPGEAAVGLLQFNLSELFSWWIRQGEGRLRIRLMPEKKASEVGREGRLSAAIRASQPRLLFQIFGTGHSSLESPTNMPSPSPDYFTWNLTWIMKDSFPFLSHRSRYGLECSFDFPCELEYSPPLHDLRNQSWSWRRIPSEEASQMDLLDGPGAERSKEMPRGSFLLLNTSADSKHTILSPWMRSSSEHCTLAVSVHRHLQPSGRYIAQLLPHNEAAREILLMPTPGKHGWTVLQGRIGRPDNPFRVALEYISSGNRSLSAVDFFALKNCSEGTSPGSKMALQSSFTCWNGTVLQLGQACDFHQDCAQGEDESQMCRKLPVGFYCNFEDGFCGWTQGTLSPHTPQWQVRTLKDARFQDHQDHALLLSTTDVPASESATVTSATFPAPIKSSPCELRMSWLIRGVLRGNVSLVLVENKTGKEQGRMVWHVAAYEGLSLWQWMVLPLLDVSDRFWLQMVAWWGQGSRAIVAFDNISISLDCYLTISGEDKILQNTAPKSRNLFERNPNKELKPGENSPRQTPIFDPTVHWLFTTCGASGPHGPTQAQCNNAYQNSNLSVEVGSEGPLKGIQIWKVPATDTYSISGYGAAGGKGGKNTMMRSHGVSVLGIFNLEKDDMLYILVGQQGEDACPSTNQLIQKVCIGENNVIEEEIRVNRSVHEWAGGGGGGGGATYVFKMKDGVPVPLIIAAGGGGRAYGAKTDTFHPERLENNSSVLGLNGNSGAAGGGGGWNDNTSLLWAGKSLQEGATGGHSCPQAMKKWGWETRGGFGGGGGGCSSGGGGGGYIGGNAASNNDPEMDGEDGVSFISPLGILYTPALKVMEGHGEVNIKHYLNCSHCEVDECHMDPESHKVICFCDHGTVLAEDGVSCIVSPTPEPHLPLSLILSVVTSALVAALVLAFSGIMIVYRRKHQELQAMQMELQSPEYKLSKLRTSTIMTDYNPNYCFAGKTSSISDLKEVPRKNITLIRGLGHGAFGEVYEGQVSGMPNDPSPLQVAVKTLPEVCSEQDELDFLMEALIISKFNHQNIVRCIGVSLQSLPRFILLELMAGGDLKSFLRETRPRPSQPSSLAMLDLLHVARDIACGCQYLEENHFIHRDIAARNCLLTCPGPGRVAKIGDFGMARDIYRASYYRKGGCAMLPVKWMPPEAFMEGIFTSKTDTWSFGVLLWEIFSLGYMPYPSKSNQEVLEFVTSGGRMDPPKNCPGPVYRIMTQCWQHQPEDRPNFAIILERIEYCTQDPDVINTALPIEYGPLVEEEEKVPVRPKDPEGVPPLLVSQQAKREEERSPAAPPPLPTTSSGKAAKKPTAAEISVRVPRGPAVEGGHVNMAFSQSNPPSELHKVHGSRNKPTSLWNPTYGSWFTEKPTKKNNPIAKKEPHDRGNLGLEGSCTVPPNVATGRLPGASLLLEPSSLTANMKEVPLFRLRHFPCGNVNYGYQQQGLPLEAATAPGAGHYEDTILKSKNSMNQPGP
Experimental: as §3, §4, §5, §6, §7, §8, §9

[5] = test system: BaF3 [EML4-ALK]; test: Cytotoxicity test (CellTiter-Glo), BaF3 [EML4-ALK]; format: cell-based; conditions: Ba/F3 cells
Experimental: as §3, §4, §5, §6, §7, §8, §9

[6] = molecular target: T2, ALK[L1196M] (Ba/F3) (Homo sapiens, UniProt Q9UM73, L1196M, cells depend on it); test: Cytotoxicity test (CellTiter-Glo), BaF3 EML4-ALK L1196M; format: cell-based; conditions: 72 hours, CellTiter-Glo; read-out: IC50(nM) ALK[L1196M] (Ba/F3)
T2 construct: IC50(nM) ALK[L1196M]; (Ba/F3); other: 72 hours, CellTiter-Glo; BaF3 [EMF4-AFK F1196M]; fused on or other part: Q9HC35 (Echinoderm microtubule-associated protein-like 4)
T2 sequence (Q9UM73 whole entry L1196M, the tested form may be a part): as the sequence (Q9UM73 whole entry, change not shown, the tested form may be a part) above, with L1196M counted along it
Experimental: as §3, §4, §5, §6, §7, §8, §9

[7] = test system: ALK[L1196M] (Ba/F3); test: as above; format: cell-based; conditions: Ba/F3 cells
Experimental: as §3, §4, §5, §6, §7, §8, §9

[8] = Metabolic stability in human liver microsomes; format: in vitro ADME; conditions: pH 7.4, 1 μM compound, 0.5 mg/mL protein; for microsomal CLint at 1 μM: read-out: CLint (uL/min/mg), Human liver microsome experiment; for half-life at 1 μM: read-out: t1/2 (min), Human liver microsome experiment
Experimental: (§10) Experiments in microsomes: Human liver microsomes: 0.5 mg/mL, Xenotech; Rat liver microsomes: 0.5 mg/mL, Xenotech; Coenzyme (NADPH/NADH): 1 mM, Sigma Life Science; Magnesium chloride: 5 mM, 100 mM phosphate buffer (pH 7.4).
(§11) Preparation of stock solution: Powder of the example compounds was accurately weighed and dissolved in DMSO to 5 mM. Preparation of phosphate buffer (100 mM, pH7.4): A pre-formulated 0.5M potassium dihydrogen phosphate (150 mL) was mixed with 0.5M dibasic potassium phosphate (700 mL). The pH of the mixture was adjusted to 7.4 with 0.5M dibasic potassium phosphate solution. The mixture was diluted 5-fold with ultrapure water before use, and magnesium chloride was added to obtain a phosphate buffer (100 mM) containing 100 mM potassium phosphate, 3.3 mM magnesium chloride, pH7.4. A NADPH regeneration system solution (containing 6.5 mM NADP, 16.5 mM G-6-P, 3 U/mL G-6-PD, 3.3 mM magnesium chloride) was prepared and placed on wet ice prior to use. Preparation of stop solution: acetonitrile solution containing 50 ng/mL propranolol hydrochloride and 200 ng/mL tolbutamide (internal standard). 25057.5 μL of phosphate buffer (pH 7.4) was taken into a 50 mL centrifuge tube, to which 812.5 μL human liver microsomes were added, and mixed to obtain a liver microsome dilution solution with a protein concentration of 0.625 mg/mL. 25057.5 μL of phosphate buffer (pH 7.4) was taken into a 50 mL centrifuge tube, to which 812.5 μL SD rat liver microsomes were added, and mixed to obtain a liver microsome dilution solution with a protein concentration of 0.625 mg/mL.
(§12) Incubation of the samples: The stock solution of the respective compound was respectively diluted to 0.25 mM with an aqueous solution containing 70% acetonitrile, and used as a working solution, ready for use. 398 μL of the dilution solution of human liver microsomes or rat liver microsome were added to a 96-well incubation plate (N=2), respectively, and 2 μL of 0.25 mM working solution was added and mixed.
(§13) Metabolic stability assay: 300 μL of pre-chilled stop solution was added to each well of a 96-well deep well plate and placed on ice as a stop plate. The 96 well incubation plate and NADPH regeneration system were placed in a 37° C. water bath box, shaken at 100 rpm and pre-incubated for 5 min. 80 μL of incubation solution was taken out from each well of the incubation plate and added to the stop plate, mixed, and replenished with 20 μL of NADPH regeneration system solution as a 0-min sample. 80 μL of NADPH regeneration system solution was added to each well of the incubation plate to start the reaction and start counting. […] Separately, 100 μL of the reaction solution was taken at 10, 30, and 90 min reaction, respectively, added to a stop plate, and vortexed for 3 minutes to terminate the reaction. The stop plate was centrifuged at 5000×g at 4° C. for 4 min. 100 μL of the supernatant was added to a 96-well plate to which 100 μL of distilled water was previously added, mixed, and analyzed by LC-MS/MS.
(§14) Data analysis: The peak areas of the corresponding compound and internal standard were detected by LC-MS/MS system, and the ratio of the peak area of the compound to the internal standard was calculated.

[9] = Metabolic stability in rat liver microsomes; format: in vitro ADME; conditions: SD, pH 7.4, 1 μM compound, 0.5 mg/mL protein; for microsomal CLint at 1 μM: read-out: CLint (uL/min/mg), Rat liver microsome experiment; for half-life at 1 μM: read-out: t1/2 (min), Rat liver microsome experiment
Experimental: as §10, §11, §12, §13, §14

Chain of ALK [WT] (Q9UM73 19-1620): as the sequence (Q9UM73 19-1620 L1196M) above, with M1178L counted along it

## CNCC(C)(C)c1ccc(Nc2ncc(Cl)c(Nc3ccccc3P(C)(C)=O)n2)c(OC)c1 [Example 11, (2-((5-chloro-2-((2-methoxy-4-(2-methyl-1-(methylamino)propan-2-yl)phenyl)amino)pyrimidin-4-yl)amino)phenyl)dimethylphosphine oxide]
[1]
  IC50: 2 to 5 nM
[2]
  IC50: 5 to 10 nM
[3]
  IC50: ≥ 1000 nM
[4]
  GI50: 25 to 50 nM
[5]
  Selectivity parental/ALK: 100 to 200
[6]
  GI50: 50 to 100 nM
[7]
  Selectivity parental/ALK[L1196M]: 50 to 100
[8]
  microsomal CLint at 1 μM: 23.8 µL/min/mg
  half-life at 1 μM: 58.2 min
[9]
  microsomal CLint at 1 μM: 7.2 µL/min/mg
  half-life at 1 μM: 194 min

## COc1cc(C(C)(C)CN(C)C)ccc1Nc1ncc(Cl)c(Nc2ccccc2P(C)(C)=O)n1 [Example 12, (2-((5-chloro-2-((4-(1-(dimethylamino)-2-methylpropan-2-yl)-2-methoxyphenyl)amino)pyrimidin-4-yl)amino)phenyl)dimethylphosphine oxide]
[1]
  IC50: 2 to 5 nM
[2]
  IC50: 5 to 10 nM
[3]
  IC50: ≥ 1000 nM
[4]
  GI50: 25 to 50 nM
[5]
  Selectivity parental/ALK: 100 to 200
[6]
  GI50: 50 to 100 nM
[7]
  Selectivity parental/ALK[L1196M]: <50
[8]
  microsomal CLint at 1 μM: 73.5 µL/min/mg
  half-life at 1 μM: 18.9 min
[9]
  microsomal CLint at 1 μM: 86.8 µL/min/mg
  half-life at 1 μM: 16 min

## COc1cc(C(C)(C)N)ccc1Nc1ncc(Cl)c(Nc2ccccc2P(C)(C)=O)n1 [Example 13, (2-((2-((4-(2-aminopropan-2-yl)-2-methoxyphenyl)amino)-5-chloropyrimidin-4-yl)amino)phenyl)dimethylphosphine oxide]
[1]
  IC50: ≤ 2 nM
[2]
  IC50: ≤ 2 nM
[3]
  IC50: ≥ 1000 nM
[4]
  GI50: 25 to 50 nM
[5]
  Selectivity parental/ALK: <50
[6]
  GI50: 100 to 200 nM
[7]
  Selectivity parental/ALK[L1196M]: <50
[8]
  microsomal CLint at 1 μM: 11.7 µL/min/mg
  half-life at 1 μM: 119 min
[9]
  microsomal CLint at 1 μM: 9.1 µL/min/mg
  half-life at 1 μM: 152 min

## COc1cc(C(C)(C)N(C)C)ccc1Nc1ncc(Cl)c(Nc2ccccc2P(C)(C)=O)n1 [Example 14, (2-((5-chloro-2-((4-(2-(dimethylamino)propan-2-yl)-2-methoxyphenyl)amino)pyrimidin-4-yl)amino)phenyl)dimethylphosphine oxide]
[1]
  IC50: ≤ 2 nM
[2]
  IC50: 2 to 5 nM
[3]
  IC50: ≥ 1000 nM
[4]
  GI50: < 25 nM
[5]
  Selectivity parental/ALK: 100 to 200
[6]
  GI50: 50 to 100 nM
[7]
  Selectivity parental/ALK[L1196M]: <50
[8]
  microsomal CLint at 1 μM: 29.9 µL/min/mg
  half-life at 1 μM: 46.4 min
[9]
  microsomal CLint at 1 μM: 33.4 µL/min/mg
  half-life at 1 μM: 41.5 min
